Measurements from ChEMBL document CHEMBL1156028, “Synthesis of 1,6,7,8-tetrahydro-naphtho[2,3-d]-azepino[4,5-b]indole-9,14-diones and their inhibitory effects on pro-inflammatory cytokines” (Bioorg Med Chem Lett, 2009).
Activity calls are given as the source filed them. The calls are words filed in the database; no cut-off is given here.

Assays:
[1] = system: RAW264.7; assay: Antiinflammatory activity in mouse RAW264.7 cells assessed as inhibition of LPS-induced nitric oxide production after 24 hrs by immunoassay; type: functional, cell-based
[2] = system: RAW264.7; assay: Antiinflammatory activity in mouse RAW264.7 cells assessed as inhibition of LPS-induced IL-6 production at 1 to 5 ug/ml after 24 hrs by immunoassay; type: functional, cell-based
[3] = system: RAW264.7; assay: Antiinflammatory activity in mouse RAW264.7 cells assessed as inhibition of LPS-induced TNFalpha production after 24 hrs by immunoassay; type: functional, cell-based
[4] = system: RAW264.7; assay: Antiinflammatory activity in mouse RAW264.7 cells assessed as inhibition of LPS-induced PGE2 production at 5 ug/ml after 24 hrs by immunoassay; type: functional, cell-based
[5] = system: RAW264.7; assay: Antiinflammatory activity in mouse RAW264.7 cells assessed as inhibition of LPS-induced IL1-beta production at 1 to 5 ug/ml after 24 hrs by immunoassay; type: functional, cell-based
[6] = Cytotoxicity against mouse RAW264.7 cells assessed as cell viability at 1 to 5 ug/ml after 4 hrs by MTT assay; type: cell-based; details: read-out: Activity
[7] = system: RAW264.7; assay: Antiinflammatory activity in mouse RAW264.7 cells assessed as inhibition of LPS-induced PGE2 production at 1 ug/ml after 24 hrs by immunoassay; type: functional, cell-based

SMILES | Activity [1] | Activity [2] | Activity [3] | Activity [4] | Activity [5] | viability at 4 h [6] [%] | inhibition [7]
CN1CCc2c([nH]c3ccccc23)C2=C1C(=O)c1ccccc1C2=O | Dose-dependent effect | inactive | Dose-dependent effect | Active | inactive | 58 | 
O=C1C2=C(C(=O)c3ccccc31)c1[nH]c3ccccc3c1CCN2 | Dose-dependent effect | inactive | Dose-dependent effect | Active | inactive | 58 | inactive
CCCN1CCc2c([nH]c3ccccc23)C2=C1C(=O)c1ccccc1C2=O | Dose-dependent effect | inactive | Dose-dependent effect | Active | inactive | 58 | 
C=CCN1CCc2c([nH]c3ccccc23)C2=C1C(=O)c1ccccc1C2=O | Dose-dependent effect | inactive | Dose-dependent effect | Active | inactive | 24 | 
COc1cccc2c1C(=O)C1=C(NCCc3c1[nH]c1ccccc31)C2=O | Dose-dependent effect | inactive | Dose-dependent effect | Active | inactive | 58 | inactive
COc1ccc2[nH]c3c(c2c1)CCNC1=C3C(=O)c2ccccc2C1=O | Dose-dependent effect | inactive | Dose-dependent effect | Active | inactive | 58 | inactive
O=C1C2=C(C(=O)c3ccccc31)N(Cc1ccccc1)CCc1c2[nH]c2ccccc12 | Dose-dependent effect | inactive | Dose-dependent effect | Active | inactive | 58 | inactive
